Assay results reported in paper PMC10732257 (Oncotarget, 2023).

How the values were obtained:
[1] = target: T1, 5-HT1B (serotonin) (Homo sapiens, UniProt P28222); test: GPCR competitive antagonist (off-target inhibitory action) testing; type: cell-based
T1 construct: Wuxi AppTech (Shanghai, China)
Source text: (§1) Supplementary Table 3: Results of off-target inhibitory action testing of GFH009 administered at
(§2) Competitive antagonist activity against GPCR type shown below

[2] = target: op-k (opioid) (Homo sapiens, UniProt P41145); test: as above; type: cell-based
Source text: as §1, §2

[3] = target: T2, 5-HT2B (serotonin) (Homo sapiens, UniProt P41595); test: as above; type: cell-based
T2 construct: Wuxi AppTech (Shanghai, China)
Source text: as §1, §2

[4] = target: T3, 5-HT1A (serotonin) (Homo sapiens, UniProt P08908); test: as above; type: cell-based
T3 construct: Wuxi AppTech (Shanghai, China)
Source text: as §1, §2

[5] = target: T4, H1 (histamine) (Homo sapiens, UniProt P35367); test: as above; type: cell-based
T4 construct: Wuxi AppTech (contract laboratory)
Source text: as §1, §2

[6] = target: T5, a1a (adrenoceptor) (Homo sapiens, UniProt P35348); test: as above; type: cell-based
T5 construct: Wuxi AppTech (contract laboratory)
Source text: as §1, §2

[7] = target: V1A (vasopressin) (Homo sapiens, UniProt P37288); test: as above; type: cell-based
Source text: as §1, §2

[8] = target: T6, CCKa (Homo sapiens, UniProt P32238); test: as above; type: cell-based
T6 construct: Wuxi AppTech (contract laboratory)
Source text: as §1, §2

[9] = target: op-d (opioid) (Homo sapiens, UniProt P41143); test: as above; type: cell-based
Source text: as §1, §2

[10] = target: T7, CB1 (cannabinoid) (Homo sapiens, UniProt P21554); test: as above; type: cell-based
T7 construct: Wuxi AppTech (contract laboratory)
Source text: as §1, §2

[11] = target: op-m (opioid) (Homo sapiens, UniProt P35372); test: as above; type: cell-based
Source text: as §1, §2

[12] = target: T8, a2a (adrenoceptor) (Homo sapiens, UniProt P08913); test: as above; type: cell-based
T8 construct: Wuxi AppTech (contract laboratory)
Source text: as §1, §2

[13] = tested on: AD2 (adenosine); test: as above; type: cell-based
Source text: as §1, §2

[14] = target: T9, D2 (dopamine) (Homo sapiens, UniProt P14416); test: as above; type: cell-based
T9 construct: Wuxi AppTech (contract laboratory)
Source text: as §1, §2

[15] = target: H2 (histamine) (Homo sapiens, UniProt P25021); test: as above; type: cell-based
Source text: as §1, §2

[16] = target: T10, CB2 (cannabinoid) (Homo sapiens, UniProt P34972); test: as above; type: cell-based
T10 construct: Wuxi AppTech (contract laboratory)
Source text: as §1, §2

[17] = target: T11, b1 (adrenoceptor) (Homo sapiens, UniProt P08588); test: as above; type: cell-based
T11 construct: Wuxi AppTech (contract laboratory)
Source text: as §1, §2

[18] = tested on: MV-4-11 cells; test: Western blot of CDK9-regulated signaling in cultured cells; type: cell-based, human; conditions: 4-hour incubation
Description: Figure 4 Effect of GFH009 on CDK9-dependent gene expression in cells. Western blot of MV-4-11 cells after exposure to different concentrations of GFH009 or Enitociclib for 4 hours was analyzed. A representative blot was shown from 3 independent experiments.
The effect of GFH009 on CDK9-regulated signaling pathways in human hematological malignancy cell lines was assessed via western blot. Cultured MV-4-11 cells, derived from human blastic AML cells (ATCC), were incubated at 37°C and 5% CO2 for 4 hours at final concentrations of 1 μM, 0.3 μM, 0.1 μM, 0.03 μM, and 0.01 μM for both GFH009 and enitociclib. Protein isolates were collected from pelleted cells as previously described, semi-quantified via western blot and analyzed using Image Studio 5.0 (LI-COR Biosciences, Lincoln, NE, USA).

[19] = target: T12, CDK13/cyclin K (Homo sapiens, UniProt Q14004); test: CDK family off-target kinase activity (Eurofins); type: biochemical
T12 construct: purchased Eurofins Pharma Discovery Services UK Ltd
Source text: The pharmacodynamic and mechanistic foundation for the
CDK9 inhibitor for the treatment of hematologic malignancies
Supplementary Table 1: Inhibitory action of GFH009 on other CDK family members
Various CDK/ Remaining enzymatic activity (%) after
cognate cyclin pairs tested exposure to GFH009 at a concentration of Selectivity vs. CDK9
(also on this page, place not known: www.oncotarget.com Oncotarget, Materials Supplementary)
(1 picture or pasted object on this page, not shown here)

[20] = Body weight change in MV-4-11 xenograft mice; type: in vivo, female BALB/c nude mice; conditions: all GFH009 treatment groups; through Day 28
Description: Figure 7 Effect of GFH009 on body weight change in MV-4-11 xenografts. Body weight change of MV-4-11 xenograft (Figure 6) are expressed as mean ± SEM. ^* […], ^** P < 0.01, ^**** P < 0.0001, two-way ANOVA with Dunnett’s multiple comparisons test analysis compared to the vehicle-treated (control) group.
Animals dosed BIW were given treatments on 2 consecutive days. Weights were recorded for each mouse every day and tumor volumes assessed 3 times a week. Total treatment administration occurred across 3 consecutive weeks.
Relative change in body weight (RCBW) was determined as RCBW (%) = (Bwi – BW0)/BW0 × 100, where Bwi is body weight of a given mouse on a given day, and BW0 is initial body weight on the day they were assigned to a treatment group.

[21] = tested on: MV-4-11 xenograft tumor; test: Western blot of CDK9-dependent protein expression in MV-4-11 xenograft tumor tissue; type: in vivo, female BALB/c nude mice; conditions: single dose 15 mg/kg i.v.
Description: Figure 9 Effect of GFH009 treatment on CDK9-dependent protein expression in vivo. Female BALB/c nude mice were subcutaneously inoculated with 5 × 10^6 MV-4-11 cells. […] The mice were euthanized, and tumor tissues were collected at different times after administration as indicated for western blot analysis. Three individual mice were selected from GFH009 treatment group.
In vivo protein expression was assessed via SDS-PAGE and western blotting of samples from female BALB/c nude mice following treatment with GHF009. […] When tumors reached approximately 600 mm^3 (Day 25), animals were randomly divided into two groups. Group 1 received a single dose of vehicle control. […] Both were administered via tail vein injection.
All mice were euthanized, and tumor tissues collected at required times following administration. Group 1 control animals were euthanized at 2 hours post-administration. Group 2 animals were euthanized at 1, 2, 4, 8, 24, and 48 hours after administration. Tumor tissue was harvested, weighed, and flash frozen in liquid nitrogen. Total proteins were extracted and analyzed by western blot to determine expression of phospho-Rpb1 CTD Ser2, RPB1, MYC, MCL-1, Cleaved Caspase-3, and vinculin. Image Studio V5.0 was used to analyze all western blot membrane images.

COC[C@@H](C)NC1CCC(Nc2cc(-c3csc(NCC4(C#N)CCOCC4)n3)c(Cl)cn2)CC1 (stereo partly drawn) [GFH009]
% Inhibitory Effect @ Max Dose (10 µM) [1]: 4.71%
% Inhibitory Effect @ Max Dose (10 µM) [2]: 11.54%
% Inhibitory Effect @ Max Dose (10 µM) [3]: −24.98%
% Inhibitory Effect @ Max Dose (10 µM) [4]: 12.31%
% Inhibitory Effect @ Max Dose (10 µM) [5]: 12.37%
% Inhibitory Effect @ Max Dose (10 µM) [6]: 68.39%
% Inhibitory Effect @ Max Dose (10 µM) [7]: −1.57%
% Inhibitory Effect @ Max Dose (10 µM) [8]: 16.26%
% Inhibitory Effect @ Max Dose (10 µM) [9]: −15.46%
% Inhibitory Effect @ Max Dose (10 µM) [10]: −9.21%
% Inhibitory Effect @ Max Dose (10 µM) [11]: 20.94%
% Inhibitory Effect @ Max Dose (10 µM) [12]: 5.16%
% Inhibitory Effect @ Max Dose (10 µM) [13]: −13.58%
% Inhibitory Effect @ Max Dose (10 µM) [14]: 10.34%
% Inhibitory Effect @ Max Dose (10 µM) [15]: −18.49%
% Inhibitory Effect @ Max Dose (10 µM) [16]: −8.86%
% Inhibitory Effect @ Max Dose (10 µM) [17]: 30.48%
Expression levels of MCL-1 and c-Myc ([18]; 0.01-1 μM, western blot): dose-dependently decreased
Expression level of phospho-Rpb1 CTD Ser2 ([18]; increasing concentration, western blot): gradually decreased
Expression levels of phospho-Rpb1 CTD Ser5 and total Rpb1 ([18]; vs DMSO-only control): not significantly different
Concentration inducing cleavage of caspase-3 and PARP ([18]; western blot): greater than 0.1 μM
Selectivity vs. CDK9 [19]: > 1000
Remaining enzymatic activity (%) after exposure to GFH009 ([19]; 1 µM): 93%
Remaining enzymatic activity (%) after exposure to GFH009 ([19]; 10 µM): 88%
Relative change in body mass (RCBW%) vs initial [20]: ≤ 5%
Levels of MCL-1 and MYC in tumor ([21]; from 2 hours through 48-hour time point): began to decrease significantly
Expression of p-Rpb1 phospho-Ser2 in tumor ([21]; from one hour through 48 hours post-administration): began to decrease significantly
